Assay results as given in patent US20190083521A1, “COMBINATION THERAPY FOR TREATING CANCER” (Epizyme, Inc., priority 2014, published 2019).
“Also recorded” adds a separate entry of the source.

How the values were obtained:
[1] = system: RS4-11 (MLL-AF4) cells; assay: Example 7 retest: EPZ-5676 pre-treatment, second compound 72 h, Cell Titer Glo, growth inhibition; format: cell-based; conditions: Homo sapiens, 240 h, single agent, read-out: EPZ-5676 10-day IC50
[2] = system: MOLM-13 (MLL-AF9) cells; assay: Combination proliferation assay with Compound A2 (CellTiter-Glo, Chou-Talalay CI); format: cell-based, human; conditions: for Combination effect, reverse order of addition with Ara-C washout: washed out, then Compound A2 7 days; for Combination effect with Compound A2 (Table 2): MOLM-13 MLL-AF9
Outline: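 Viability by CellTiter-Glo ATP luminescence; fraction affected versus DMSO controls, combination index by Chou-Talalay (CI <1 synergy, >1 antagonism).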

[3] = system: MOLM-13 (MLL-AF9) cells; assay: Example 7 retest: EPZ-5676 pre-treatment, second compound 72 h, Cell Titer Glo, growth inhibition; format: cell-based; conditions: Homo sapiens, 240 h, single agent
[4] = system: THP-1 (MLL-AF9) cells; assay: as above; format: cell-based; conditions: 240 h, single agent, read-out: EPZ-5676 10-day IC50
[5] = system: SKM-1 (non-MLLr) cells; assay: as above; format: cell-based; conditions: Homo sapiens, 240 h, single agent
[6] = system: ML-2 (MLL-AF6) cells; assay: as above; format: cell-based; conditions: 240 h, single agent, read-out: EPZ-5676 10-day IC50
[7] = system: OCI-AML-4 (MLL-ENL) cells; assay: as above; format: cell-based; conditions: 240 h, single agent
[8] = system: MOLM-13 (MLL-AF9) cells; assay: Example 7 primary screen: 300 nM EPZ-5676 pre-treatment, second compound 72 h, ATPLite, GI100 shift; format: cell-based, human; conditions: Homo sapiens, 264 h; MOLM-13; single agent; read-out: EPZ-5676 11-day (Primary screen) IC50
[9] = system: SKM-1 (non-MLLr) cells; assay: as above; format: cell-based, human; conditions: Homo sapiens, 264 h; SKM-1; single agent; read-out: EPZ-5676 11-day (Primary screen) IC50
[10] = system: OCI-AML-4 (MLL-ENL) cells; assay: as above; format: cell-based; conditions: 264 h; OCI-AML-4; single agent; read-out: EPZ-5676 11-day (Primary screen) IC50
Experimental: Cells were split using EPZ-5676 or DMSO containing growth media and further incubated for an additional 3-day pre-treatment time. Cells were finally seeded in growth media containing EPZ-5676 or DMSO in 384-well plates at 500 cell/well density. Cells were then equilibrated in incubators for 24 hours before treatment with a second compound. Treated assay plates were incubated with a second compound for 72 hours. After this time, plates were developed for endpoint analysis using ATPLite to measure ATP content, which is used as an indicator of cell viability.
“N/D” means the GI100 of the second compound could not be determined for both conditions and “-” means not tested.
Growth Inhibition (GI) as a measure of cell viability: The cell viability of vehicle was measured at the time of dosing the second agent (T0) and after seventy-two hours (T72). A GI reading of 0% represents no growth inhibition—cells treated with test compound as compared to T72 vehicle signals were measured. […] A GI 200% represents complete death of all cells in the culture well. Compounds reaching an activity plateau of GI 200% are considered cytotoxic. GI is calculated by applying the following test and equation: […]

[11] = system: MV4-11 (MLL-AF4) cells; assay: Combination proliferation assay with Compound A2 (CellTiter-Glo, Chou-Talalay CI); format: cell-based, human
Outline: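 Viability by CellTiter-Glo ATP luminescence; fraction affected versus DMSO controls; combination index by Chou-Talalay method (CI <1 synergy, >1 antagonism).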

[12] = system: EOL-1 (MLL-PTD) cells; assay: Combination proliferation assay with Compound A2 (Chou-Talalay CI); format: cell-based, human; conditions: EOL-1 (MLL-PTD)
Experimental: (§1) Graphs representing values of combination index (CI) versus Fractional effect (Fa) known as Fa-CI plots were generated and synergy was evaluated.
(§2) Viability was determined using CellTiter-Glo® (Promega).

[13] = system: KOPM-88 (MLL-PTD) cells; assay: as above; format: cell-based, human; conditions: KOPM-88 (MLL-PTD)
Experimental: as §1, §2

[14] = system: MOLM-13 cells; assay: CD11b and CD14 differentiation marker expression by flow cytometry; format: cell-based, human; conditions: single agents
Experimental: (§3) A Guava EasyCyte HT™ flow cytometer was used to measure DNA content, Annexin V staining and cell surface expression of CD14 and CD11b markers on Days 10 and 14.
(§4) On Day 0 MOLM-13 cells are seeded at 3,000 cells/mL. On Day 7 and Day 10 MOLM-13 cells are counted and reseeded at 50,000 cells/mL. […] On Day 10 They were redosed again. On Day 14 the experiment was terminated. Cells were sampled for CD14 and CD11b analysis on Days 7, 10 and 14.
On day 7, 10, and 14, cells were collected for analysis. The cells were prepared by washing twice in PBS, followed by fixation in 4% formaldehyde for ten minutes at 37° C. After fixation cells were washed and blocked with blocking buffer for 10 minutes at room temperature. Cells were then incubated in presence of anti-CD14, anti-CD11b or anti-IgG antibody for 1 hour at room temperature while rotating. Cells were washed, re-suspended in PBS and 5,000 events were analyzed using ExpressPro software on the GuavaCyte Plus System.

[15] = system: SKM-1 (non-MLL-rearranged AML) cells; assay: Combination proliferation assay with Compound A2 (CellTiter-Glo, Chou-Talalay CI); format: cell-based, human
Experimental: as §1, §2
MV4-11 cells were maintained in IMDM supplemented with 10% fetal bovine serum. MOLM-13 and SKM-1 cells were maintained in Roswell Park Memorial Institute medium (RPMI) supplemented with 10% fetal bovine serum. They were cultured in flasks or plates in a humidified 5% CO2 atmosphere.
Proliferation studies were performed using MOLM-13, MV4-11 and SKM-1 cell lines in vitro to evaluate the cancer cell killing effect of a combination of two agents together on cell growth. Initial proliferation studies were performed to determine the IC50 values of a given compound in each cell line. The cell counts were measured by ATP quantitation using the Promega Cell Titer Glo kit and luminescence values correspond to the amount of ATP in a given well.
Compounds evaluated for synergy in the co-treatment phase were tested in a range which was bracketed around the IC50's. The compounds were plated to a 96 well plate in a matrix format which includes increasing concentrations of each drug in the combination in a constant ratio, in addition to the effect of each compound alone in the study. Cells were seeded and grown in the log-linear phase for 3 or 7 days in the cotreatment phase. Maximum and minimum inhibition (DMSO alone) controls were used in each plate to calculate fraction affected (Fa) of a test well. DMSO concentration was kept at 0.1% v/v. The drug combination analysis was performed utilizing the Chou-Talalay method. Synergy was determined using the software package Calcusyn by Biosoft. The combination index (CI) is the term used to describe the level of synergy or antagonism in a given test system. A combination index less than one indicates synergy, and a CI greater than one indicates antagonism.
The drug combination analysis was performed using the Chou-Talalay method. Graphs representing values of combination index (CI) versus Fractional effect (Fa) known as Fa-CI plots were generated and synergy was evaluated.

[16] = system: MOLM-13 cells; assay: Flow cytometric analysis of cell cycle and Annexin V (apoptosis); format: cell-based, human
Experimental: as §3, §4
To evaluate the fraction of cells in each cell cycle, flow cytometric analysis was performed. FACS analysis for detection of cell death by apoptosis, and cell cycle was performed.
Cells were harvested on days 7, 10 and 14 and split to allow simultaneous analysis of cell cycle and Annexin V staining. Apoptosis was determined using the Guava Nexin Assay (Millipore 4500-0450) and cells were prepared according to the manufacturer's recommendations. Samples were analyzed using the Guava EasyCyte Plus System (Millipore). Cells for cell cycle analysis were pelleted by centrifugation at 200×g for 5 minutes at 4° C., washed twice with ice cold PBS then fixed with 70% ice cold ethanol. All samples were analyzed together at end of experiment. Following fixation cells were washed with PBS and stained with the Guava cell cycle reagent (Millipore 4500-0220) for 30 minutes. Samples were analyzed using the Guava EasyCyte Plus System (Millipore).

[17] = 14 day treatment, 156 nM Compound A2 or 63 nM Ara-C

CC(C)N(C[C@H]1O[C@@H](n2cnc3c(N)ncnc32)[C@H](O)[C@@H]1O)[C@H]1C[C@@H](CCc2nc3cc(C(C)(C)C)ccc3[nH]2)C1 [Compound A2, pinometostat]
IC50 [1]: > 3000 nM
Combination effect with T0070907 (PPAR antagonist) ([2]; MOLM-13, co-treatment model (Example 8)): Synergy (Drug synergy was statistically defined by CI values less than 1)
IC50 ([3]; MOLM-13 (MLL-AF9), read-out: EPZ-5676 10-day IC50): 75 nM
IC50 ([3]; MOLM-13, read-out: EPZ-5676 10-day (Retest) IC50): 75 nM
IC50 [4]: > 3000 nM
IC50 ([5]; SKM-1 (non-MLLr), read-out: EPZ-5676 10-day IC50): > 3000 nM
IC50 ([5]; SKM-1, read-out: EPZ-5676 10-day (Retest) IC50): > 3000 nM
IC50 [6]: > 3000 nM
IC50 ([7]; OCI-AML-4 (MLL-ENL), read-out: EPZ-5676 10-day IC50): > 3000 nM
IC50 ([7]; OCI-AML-4, read-out: EPZ-5676 10-day (Retest) IC50): > 3000 nM
IC50 [8]: 150 nM
IC50 [9]: > 3000 nM
IC50 [10]: > 3000 nM

Nc1ccn([C@@H]2O[C@H](CO)[C@@H](O)[C@@H]2O)c(=O)n1 [Ara-C, cytarabine]
Combination effect with Compound A2 (Table 4) ([2]; MOLM-13 (MLL-AF9), 7 Day Cotreatment Model): Strong Synergy
Combination effect with Compound A2 ([2]; MOLM-13, 4 + 3 Model (4 days Compound A2 pretreatment, then 3 days co-treatment)): Synergy (A combination index less than one indicates synergy)
Combination effect with Compound A2 ([2]; MOLM-13, 7 Day Cotreatment (Example 1)): Synergy (A combination index less than one indicates synergy)
Combination effect, reverse order of addition ([2]; MOLM-13, Ara-C 3 days, then Compound A2 and Ara-C co-treatment 7 days): Synergy (Drug synergy was statistically defined by CI values less than 1)
Combination effect, reverse order of addition with Ara-C washout ([2]; MOLM-13, Ara-C 3 days): Combination benefit is maintained
Combination effect, reverse order of addition with Ara-C washout ([2]; MOLM-13, Ara-C 3 days, listed as cytarabine): essentially the same level of synergistic cell killing
Antiproliferative combination effect after Compound A2 washout ([2]; MOLM-13, Compound A2 washed out prior to addition of the SOC agent): durable combination benefit; also recorded: maintained
Antiproliferative combination effect with Compound A2 ([2]; MOLM-13, pre-treatment model, no Compound A2 washout): synergistic
Combination effect with Compound A2 (Table 2) [2]: Synergy (Drug synergy was statistically defined by CI values less than 1)
Combination effect with Compound A2 (Table 2) ([2]; listed as cytarabine): synergistically
Combination effect with Compound A2 ([11]; MV4-11, 7 Day Cotreatment (Example 1)): Synergy (A combination index less than one indicates synergy)
Antiproliferative combination effect after Compound A2 washout ([11]; MV4-11, Compound A2 washed out prior to addition of the SOC agent): maintained
Antiproliferative combination effect with Compound A2 ([11]; MV4-11, pre-treatment model, no Compound A2 washout): synergistic
Combination effect with Compound A2 (Table 2) ([11]; MV4-11 MLL-AF4): synergistically
Combination effect with Compound A2 (Table 3) [12]: Synergy (Drug synergy was statistically defined by CI values less than 1)
Combination effect with Compound A2 (Table 3) [13]: Synergy (Drug synergy was statistically defined by CI values less than 1)
Differentiation markers CD11b and CD14 [14]: time and concentration dependent up-regulation
Combination effect with Compound A2 (Table 2) ([15]; SKM-1 AML: Non-rearranged): did not act synergistically
Effect of Compound A2 on antiproliferative activity of the second agent ([15]; SKM-1 non-MLL-rearranged (Example 5)): did not affect
Apoptosis in combination with Compound A2 ([16]; 156 nM Compound A2 + 63 nM Ara-C): enhance apoptosis
Sub-G1 cell population in combination with Compound A2 ([16]; 156 nM Compound A2 + 63 nM Ara-C, at 10 and 14 days): significant increase
Apoptotic cell population, single agent [16, 17]: modest increase
Sub-G1 cell population, single agent [16, 17]: minimal effect
